One data set has as its system BV-2. Description: Antiinflammatory activity against mouse BV-2 cells assessed as reduction in LPS-induced NO production incubated for 24 hrs by Griess reagent based assay. The format is functional, cell-based. The following applies: BV-2, 24 h.
A short description of data set [1]: Cytotoxicity against mouse BV-2 cells assessed as reduction in cell growth. It is filed as toxicity, cell-based.

The values below come from ChEMBL document CHEMBL5316371, “Paraconulones A-G: Eremophilane Sesquiterpenoids from the Marine-Derived Fungus Paraconiothyrium sporulosum DL-16” (J Nat Prod, 2023).

As to `C=C(C)[C@]1(O)C[C@@]2(C)C(=C[C@H]1O)C=CC(=O)[C@@H]2C`, the IC50 in the data set on BV-2 was determined as 98 µM. Besides, in data set [1], the CC50 is more than 50 µM.
`C[C@H](CO)C1=C[C@@]2(C)C(=CC1=O)C=CC(=O)[C@H]2C`: the IC50 in the data set on BV-2 was 40 µM. Further, the CC50 in data set [1] was more than 50 µM.
As for `CO[C@]12C=C3C=CC(=O)[C@H](C)[C@@]3(C)C[C@@]1(O)[C@H](C)CO2`, in the data set with BV-2, the IC50 worked out at 4.6 µM. In addition, in data set [1], the CC50 is more than 50 µM.
For `CC(=O)OC[C@@H](C)[C@]1(O)C[C@@]2(C)C(=CC1=O)[C@@H]1[C@H](C(=O)[C@@H]2C)[C@H]2C(=O)[C@H](C)[C@@]3(C)C[C@@](O)([C@H](C)COC(C)=O)C(=O)C=C3[C@H]21`, in that order: 2.8 µM and more than 50 µM.
For the compound `CO[C@]12C=C3C=C(C4=CC5=C[C@]6(OC)OC[C@@H](C)[C@]6(O)C[C@]5(C)[C@@H](C)C4=O)C(=O)[C@@H](C)[C@@]3(C)C[C@@]1(O)[C@H](C)CO2`, the IC50 in the data set with BV-2 came to 6.9 µM. Besides, in data set [1], the CC50 was more than 50 µM.
As for `CC(=O)OC[C@@H](C)[C@]1(O)C[C@@]2(C)C(=CC1=O)C=CC(=O)[C@H]2C`, the IC50 in the data set with BV-2 amounted to 7.7 µM. The CC50 in data set [1] is more than 50 µM.
For `CC1=C(C)[C@]2(C=CC1=O)C[C@@]1(O)[C@H](C)CO[C@@]1(O)C2`, in that order: 8.1 µM and more than 50 µM.
For `C[C@H](CO)[C@@H]1C[C@@]2(C)C(=CC1=O)C=CC(=O)[C@H]2C`, the IC50 in the data set on BV-2 stood at 8.1 µM. For the same compound, in data set [1], the CC50 was more than 50 µM.
With `COc1cc(/C=C/C(=O)CC(=O)/C=C/c2ccc(O)c(OC)c2)ccc1O` [CURCUMIN], in the data set with BV-2, the IC50 was determined as 8.6 µM. Further, the CC50 in data set [1] was more than 50 µM.
On to `CO[C@]12C=C3C=CC(=O)[C@@H](C)[C@@]3(C)C[C@@]1(O)[C@H](C)CO2` [MICROSPHAEROPSISIN], for which the IC50 in the data set with BV-2 turned out to be 80 µM. Besides, the CC50 in data set [1] was more than 50 µM.
